Assay results taken from patent US9021738B2, “Control of termites, fire ants and carpenter ants” (priority 2008, dated 2015).
Like-named read-outs stand apart in the source and are kept apart here.

How the values were obtained:
[1] = test system: Formosan subterranean termites; format: in vivo, Coptotermes formosanus; details: for termites killed: 25 mg/liter volume
Method: (§1) Formosan subterranean termites were collected from bucket traps placed in City Park, New Orleans, La. Altogether five colonies designated 1314, 1559, 1732, 1743 and 1756 were used in the tests. After collection, the termites (primarily workers and soldiers) were transferred to plastic boxes with moist spruce slats. The boxes were stored in an incubator maintained at 28° C., 65% RH, and constant darkness. Termites were used within one month of their collection.
(§2) Vapor Toxicity Under Subterranean Conditions. This test was also conducted in the one liter Qorpak™ bottles. A 35 by 40 by 7 mm piece of moist spruce was placed at the bottom of the bottle and covered with 40 g fine-sifted black soil. One hundred termite workers were released into each bottle and allowed to tunnel under the soil and into the wood. After 3 days, a test chemical was applied to a filter paper and suspended from the cap-liner. The chemicals were tested at 10, 25 and 50 mg. […] The test was conducted with termites from 3 colonies and replicated 3 times.
Because in their natural environment the subterranean termites are not expected to be exposed to a chemical in open space, we conducted the next test by placing 100 workers termites in spruce slats covered with a layer of soil, all placed in the same glass bottles. Tests were conducted at 25 mg dose. After 2 days tetrahydrocarvone (both d- and l-isomers) caused 100% mortality.

[2] = test system: drywood termites; details: Petri dish assays, as claimed in prior art; cited from earlier work
[3] = test system: Formosan subterranean termites; test: Assay for Vapor Toxicity; format: in vivo, Coptotermes formosanus
Method: as §1
Assay for Vapor Toxicity. This test was conducted in 960 ml wide-mouth clear Qorpak™ (All-Pak, Inc.) bottles with PTFE lined caps. A 60 mm diameter glass Petri dish with a moist filter paper and 50 termite workers was placed at the bottom of each bottle. The test chemical was applied to a 1 cm diameter filter paper and suspended with an insect pin from the cap-liner. Each chemical was initially tested at 1 mg in the one liter bottle then at 0.1 and 0.5 mg. Since 0.1 and 0.5 mg doses caused very low and 100% mortality respectively, the final test was carried out at 0.25 mg. Each chemical was tested with different termite colonies and replicated three times. The bottles were placed in the incubator. Mortality was recorded after 1, 2 and 3 days by quickly taking the glass Petri dish with the termites out of the bottle (with a pair of long forceps) and replacing it after removing the dead workers.

[4] = test system: fire ants; test: Vapor Toxicity Under Subterranean Conditions with fire ants; format: in vivo, Solenopsis invicta; details: 25 mg, in 24 hours
Method: as §2
The same Vapor Toxicity Under Subterranean Conditions test as described in paragraph [0023] was conducted except that fire ants were employed instead of termites.

[5] = test system: carpenter ants; test: Sealed jar test on carpenter ants; format: in vivo, Camponotus chromaoides; details: one drop (approximately 30 mg) on filter paper in sealed 16 oz jar, within 24 hours
Method: One drop (approximately 30 mg) of tetrahydro l-carvone test compound was applied to filter paper within a sealed jar (16 oz glass jar, 3½ inch diameter, 3⅞ inch high with plastic lids) containing ten carpenter (Camponotus chromaoides) ants per replicate with there being five replicates. Five negative controls with no test compounds were also run. The tetrahydro-1-carvone provided 100% mortality to the carpenter ants within 24 hours while the control produced 6% mortality over the same 24 hour period.

Row | SMILES | mortality of drywood and other termites [2] | efficacy against termites in soil and wood [1] | also measured
1 | C=C(C)[C@@H]1CC[C@@H](C)C(=O)C1 [dihydro-l-carvone] |  |  | termites killed ([1]; in 48 hours): 100%
2 | C=C(C)C1CC=C(C)[C@@H](O)C1 (stereo partly shown) [carveol] | high mortality | totally ineffective | 
3 | CC(C)[C@@H]1CC[C@@H](C)C(=O)C1 [tetrahydro-d-carvone] |  |  | termites killed ([3]; 0.25 mg/liter volume, in 3 days): 75%; termites killed ([3]; 0.5 mg/liter volume, in 1 day): 100%; fire ants killed [4]: 100%
4 | CC(C)[C@@H]1CC[C@@H](C)C(=O)C1 [tetrahydro-l-carvone] |  |  | termites killed ([3]; 1 mg per liter volume, in 1 day): 100%; termites killed ([1]; in 24 hrs): 100%; mortality to carpenter ants [5]: 100%
5 | CC(C)=CCCC(C)CC=O (stereo not shown) [citronellal] | high mortality | totally ineffective | 
6 | CC(C)=CCC/C(C)=C/CO [geraniol] | high mortality | totally ineffective | 
7 | CC(C)[C@@H]1CC[C@@H](C)C(=O)C1 [tetrahydrocarvone] |  |  | mortality ([1]; 25 mg dose, after 2 days, 100 worker termites in spruce slats covered with soil): 100%
8 | Cc1ccc(C(C)C)cc1 [p-cymene] | high mortality | totally ineffective | 
